From ChEMBL document CHEMBL3875145, “Highly potent anti-leishmanial derivatives of hederagenin, a triperpenoid from Sapindus saponaria L” (Eur J Med Chem, 2016) come the findings set out here.

Data set [1] in a line: Selectivity index, ratio of LD50 for dog DH82 cells to IC50 for Leishmania infantum MHOM/BR/70/BH46 promastigotes infected in dog DH82 cells. The data set is classed as toxicity, cell-based. As to conditions: read-out: Ratio LD50/IC50.
For data set [2], the system named is Leishmania infantum. The data set is described as follows: Antiparasitic activity against Leishmania infantum MHOM/BR/70/BH46 promastigotes infected in dog DH82 cells at 1000 uM after 48 hrs by ELISA method. The format is functional. Conditions: MHOM/BR/70/BH46, DH82, 48 h. Background: An ELISA detects its analyte on a solid surface through an enzyme-linked reagent.

The subject of data set [3] is Leishmania infantum. The data set is described as follows: Antiparasitic activity against Leishmania infantum MHOM/BR/70/BH46 promastigotes infected in dog DH82 cells after 48 hrs by ELISA method. The data set is classed as functional, cell-based. As to conditions: MHOM/BR/70/BH46, DH82, 48 h.
Data set [4] can be described thus: Cytotoxicity against dog DH82 cells assessed as decrease in cell viability after 48 hrs by MTT assay. The format is toxicity, cell-based, Canis lupus familiaris. Conditions: read-out: LD50. (In general: Formazan colour is commonly taken as a measure of viable cells.)
Data set [5] in a line: Selectivity index, ratio of LD50 for African green monkey BGM cells to IC50 for Leishmania infantum MHOM/BR/70/BH46 promastigotes infected in dog DH82 cells. The data set is classed as toxicity, cell-based. As to conditions: read-out: Ratio LD50/IC50.
A short description of data set [6]: Cytotoxicity against human HepG2 cells assessed as decrease in cell viability after 48 hrs by MTT assay. The format is toxicity, cell-based. As to conditions: read-out: LD50.
Data set [7] in a line: Cytotoxicity against African green monkey BGM cells assessed as decrease in cell viability after 48 hrs by MTT assay. The data set is classed as toxicity, cell-based. As to conditions: chlorocebus aethiops, read-out: LD50.
The nature of data set [8]: Selectivity index, ratio of LD50 for human HepG2 cells to IC50 for Leishmania infantum MHOM/BR/70/BH46 promastigotes infected in dog DH82 cells. The data set is classed as toxicity, cell-based. Conditions: read-out: Ratio LD50/IC50.

In the case of `CC1(C)CC[C@]2(C(=O)OCc3c(Cl)cccc3Cl)CC[C@]3(C)C(=CC[C@@H]4[C@@]5(C)CC[C@H](O)[C@@](C)(CO)[C@@H]5CC[C@]43C)[C@@H]2C1`, the selectivity ratio in data set [1] amounted to 0.6. In addition, in data set [2], the inhibition – broadly, the percentage by which the read-out fell short of the control – at 1000 µM turned out to be 53%. Besides, inhibition in data set [3] was half-maximal at 307 µM (IC50). For the same compound, the CC50 at 48 h in data set [4] is 202 µM.
`Cc1cccc(COC(=O)[C@]23CCC(C)(C)C[C@H]2C2=CC[C@@H]4[C@@]5(C)CC[C@H](O)[C@@](C)(CO)[C@@H]5CC[C@@]4(C)[C@]2(C)CC3)c1` registered an inhibition at 1000 µM in data set [2] of 66%.
`CC1(C)CC[C@]2(C(=O)OCc3cccc([N+](=O)[O-])c3)CC[C@]3(C)C(=CC[C@@H]4[C@@]5(C)CC[C@H](O)[C@@](C)(CO)[C@@H]5CC[C@]43C)[C@@H]2C1`: the selectivity ratio in data set [1] was determined as 6.4; in data set [5], 32; in data set [8] it was 5.2. The same compound returned an inhibition at 1000 µM in data set [2] of 60.5%. In addition, the IC50 (in general, the concentration that inhibits the measured activity by half) in data set [3] stood at 9.7 µM. In addition, the CC50 at 48 h in data set [4] was determined as 63 µM; in data set [6] it was 70 µM; in data set [7] it was 314 µM.
`COc1cc(COC(=O)[C@]23CCC(C)(C)C[C@H]2C2=CC[C@@H]4[C@@]5(C)CC[C@H](O)[C@@](C)(CO)[C@@H]5CC[C@@]4(C)[C@]2(C)CC3)cc(OC)c1` showed an inhibition at 1000 µM in data set [2] of 89%. Moreover, the IC50 in data set [3] is 110 µM.
Turning to `CC1(C)CC[C@]2(C(=O)OCc3ccc(Br)cc3)CC[C@]3(C)C(=CC[C@@H]4[C@@]5(C)CC[C@H](O)[C@@](C)(CO)[C@@H]5CC[C@]43C)[C@@H]2C1`, the selectivity ratio was found to be 6.9 in data set [1], 10 in data set [5] and 21.6 in data set [8]. The compound also had an inhibition at 1000 µM in data set [2] of 64.5%. In addition, the midpoint of inhibition in data set [3], the IC50, lay at 12 µM. The CC50 at 48 h was 83 µM in data set [4], 260 µM in data set [6] and 116 µM in data set [7].
For the compound `CC1(C)CC[C@]2(C(=O)OCc3cn(Cc4cccc(Br)c4)nn3)CC[C@]3(C)C(=CC[C@@H]4[C@@]5(C)CC[C@H](O)[C@@](C)(CO)[C@@H]5CC[C@]43C)[C@@H]2C1`, the selectivity ratio was determined as 0.5 in data set [1], 2 in data set [5] and 0.5 in data set [8]. In data set [2], this compound returned an inhibition at 1000 µM of 70.5%. Further, in data set [3], the IC50 worked out at 38 µM. The CC50 at 48 h in data set [4] was 21 µM; in data set [6] it was 19 µM; in data set [7], 78 µM.
With `CC1(C)CC[C@]2(C(=O)OCc3cn(Cc4ccc(F)cc4F)nn3)CC[C@]3(C)C(=CC[C@@H]4[C@@]5(C)CC[C@H](O)[C@@](C)(CO)[C@@H]5CC[C@]43C)[C@@H]2C1`, the selectivity ratio in data set [1] is 6; in data set [5], 4.9; in data set [8] it was more than 31.2. Also, 1000 µM produced 87.7% inhibition in data set [2]. The compound further gave an IC50 in data set [3] of 11 µM. Further, the CC50 at 48 h in data set [4] is 66 µM; in data set [6], more than 1000 µM; in data set [7] it was 158 µM.
As for `CC1(C)CC[C@]2(C(=O)NCc3cn(Cc4ccc(Cl)cc4)nn3)CC[C@]3(C)C(=CC[C@@H]4[C@@]5(C)CC[C@H](O)[C@@](C)(CO)[C@@H]5CC[C@]43C)[C@@H]2C1`, the selectivity ratio in data set [1] amounted to 2.6; in data set [5], 8.3; in data set [8] it was 0.4. In addition, the inhibition at 1000 µM in data set [2] was 85.4%. Further, in data set [3], the IC50 worked out at 6 µM. In addition, the CC50 at 48 h in data set [4] was found to be 16 µM; in data set [6], 2.5 µM; in data set [7] it was 50 µM.
For `CC1(C)CC[C@]2(C(=O)NCc3cn(Cc4c(Cl)cccc4Cl)nn3)CC[C@]3(C)C(=CC[C@@H]4[C@@]5(C)CC[C@H](O)[C@@](C)(CO)[C@@H]5CC[C@]43C)[C@@H]2C1`, testing at 1000 µM in data set [2] gave an inhibition of 41.7%.
Consider `CC1(C)CC[C@]2(C(=O)NCc3cn(Cc4ccc(F)cc4F)nn3)CC[C@]3(C)C(=CC[C@@H]4[C@@]5(C)CC[C@H](O)[C@@](C)(CO)[C@@H]5CC[C@]43C)[C@@H]2C1`, for which the inhibition at 1000 µM in data set [2] was determined as 41.8%.
On to `CC1(C)CC[C@]2(C(=O)NCc3cn(Cc4ccccc4[N+](=O)[O-])nn3)CC[C@]3(C)C(=CC[C@@H]4[C@@]5(C)CC[C@H](O)[C@@](C)(CO)[C@@H]5CC[C@]43C)[C@@H]2C1`, for which the selectivity ratio is 22.5 in data set [1], 55.5 in data set [5] and more than 500 in data set [8]. The same compound yielded an inhibition at 1000 µM in data set [2] of 93%. Moreover, in data set [3], the IC50 worked out at 2 µM. The figures for the CC50 at 48 h in data set [4], in data set [6] and in data set [7] were 45 µM, more than 1000 µM and 111 µM, respectively.
With `CC1(C)CC[C@]2(C(=O)NCc3cn(Cc4c(F)cccc4F)nn3)CC[C@]3(C)C(=CC[C@@H]4[C@@]5(C)CC[C@H](O)[C@@](C)(CO)[C@@H]5CC[C@]43C)[C@@H]2C1`, in data set [2], the inhibition at 1000 µM turned out to be 45%.
`CC1(C)CC[C@]2(C(=O)OCc3cn(Cc4ccccc4[N+](=O)[O-])nn3)CC[C@]3(C)C(=CC[C@@H]4[C@@]5(C)CC[C@H](O)[C@@](C)(CO)[C@@H]5CC[C@]43C)[C@@H]2C1`: the figures for the selectivity ratio in data set [1], in data set [5] and in data set [8] were 6.6, 1.3 and 5.1, respectively. The inhibition at 1000 µM in data set [2] was 51%. In addition, 32 µM corresponded to half-maximal inhibition in data set [3] (IC50). Further, the CC50 at 48 h stood at 212 µM in data set [4], 57 µM in data set [6] and 15 µM in data set [7].
Take `COC(=O)CNC(=O)[C@]12CCC(C)(C)C[C@H]1C1=CC[C@@H]3[C@@]4(C)CC[C@H](O)[C@@](C)(CO)[C@@H]4CC[C@@]3(C)[C@]1(C)CC2`: the selectivity ratio was 1.8 in data set [1], 1 in data set [5] and 3.5 in data set [8]. In data set [2], this compound had an inhibition at 1000 µM of 79.5%. In addition, 18 µM corresponded to half-maximal inhibition in data set [3] (IC50). Further, the CC50 at 48 h in data set [4] was found to be 32.5 µM; in data set [6], 60.6 µM; in data set [7], 20 µM.
Regarding `CC1(C)CC[C@]2(C(=O)O)CC[C@]3(C)C(=CC[C@@H]4[C@@]5(C)CC[C@H](O)[C@@](C)(CO)[C@@H]5CC[C@]43C)[C@@H]2C1` [HEDERAGENIN], the selectivity ratio in data set [1] turned out to be 10; in data set [5] it was 0.9; in data set [8] it was 16.2. In data set [2], the inhibition at 1000 µM came out at 55.5%. This compound showed an IC50 in data set [3] of 61.6 µM. In addition, the values for the CC50 at 48 h in data set [4], in data set [6] and in data set [7] were less than 1000 µM, less than 1000 µM and 57 µM, respectively.
